US20180066004A9, “MITOCHONDRIA-TARGETING PLATINUM(IV) PRODRUG” (priority 2014, published 2018)

Key:
PCa PC3 cell line = assay: MTT cytotoxicity assay, PC3; assay type: cell-based, human; settings: free drugs 72 h, NPs media changed after 12 h plus 60 h
Method: (§1) In vitro cytotoxicity of Platin-M, T-Platin-M, and NT-Platin-M was assessed by the 3-(4,5-dimethylthiazol-2-yl)-2,5-diphenyltetrazolium bromide or MTT assay on PCa PC3 cell line, human neuroblastoma SH-SY5Y cell line, and cisplatin resistant A2780/CP70 ovarian cancer cell line (Table 1). The rationale behind the use of androgen independent PC3 cell line was the inherent resistance of these cells to cisplatin therapy due to enhanced repair of Pt-nDNA adducts by the NER, poor targeting, and androgen-independent PCa with reduced normal mtDNA acquire a more progressive phenotype by inducing mutations to nDNA.
(§2) PC3 cells (2000 cells/well), A2780/CP70 cells (2000 cells/well), SHSY-5Y (2000 cells/well), and MSC (2000 cells/well) were plated on a 96 well plate and allowed to grow overnight. The media was changed and increasing concentrations of each formulation was added. […] Control values were set at 0% cytotoxicity or 100% cell viability.

[1] = system: human neuroblastoma SH-SY5Y cell line; assay: MTT cytotoxicity assay, SH-SY5Y; assay type: cell-based; settings: free drugs 72 h, NPs media changed after 12 h plus 60 h
Method: as §1, §2

[2] = system: human mesenchymal stem cells (hMSCs)
Method: as §2

PC3 cells = assay: XF24 MitoStress assay (OCR), PC3; assay type: cell-based, human; settings: 10 μM with respect to Pt, 12 h
Text: (§3) Mitochondrial Toxicity of T-NP. […] Many TPP-based small molecules were described to disrupt ΔΨm, uncouple OXPHOS, and inhibit mitochondrial respiration. Preclinical mitochondrial toxicology tests can have high positive predictive value. We examined Empty-T-NP, Empty-nontargeted-NPs (NT-NP), and DBCO-TPP induced changes in mitochondrial respiration of prostate cancer (PCa) PC3 cells and cisplatin resistant ovarian cancer A2780/CP70 cells as a measure of mitochondrial toxicity (FIG. 3B). The oxygen consumption rate (OCR) of cells is an important indicator of normal mitochondrial functions. Thus, OCR can be used as a parameter to study TPP-induced mitochondrial toxicity.
(§4) After 12 h, OCR was measured and the effects of metabolic modulators oligomycin, carbonyl cyanide 4-(trifluoromethoxy)phenylhydrazone (FCCP), antimycin A, and rotenone allowed determination of multiple parameters of mitochondrial function (FIG. 3B). […] Several parameters linked to mitochondrial respiration; spare respiratory capacity, coupling efficiency, basal respiration, ETC accelerator response, and ATP coupler response were calculated from the OCR (pMoles/min) vs. Time (min) traces in FIG. 3B.
(§5) Mitochondrial Bioenergetics. We next investigated basal respiration, coupling efficiency, and spare respiratory capacity in response to Platin-M and its NPs using a XF24 MitoStress assay kit (FIG. 5). To determine whether accumulation of Platin-M inside the mitochondrial matrix of PC3 or A2780/CP70 cells inhibited mitochondrial respiration, we measured oxygen consumption rates (OCRs) in these cells as a way of assessing OXPHOS. […] PC3 or A2780/CP70 cells were treated with Platin-M, cisplatin, T-Platin-M-NPs, NT-Platin-M-NPs for 12 h.
(§6) Mito-stress Test Analysis: Different parameters of respiration: basal respiration, coupling efficiency, and spare respiratory capacity were investigated by using Seahorse XF-24 cell Mito Stress Test Kit. Prior to the assay, XF sensor cartridges were hydrated. To each well of an XF utility plate, 1 mL of Seahorse Bioscience calibrant was added and the XF sensor cartridges were placed on top of the utility plate, and kept at 37° C. incubator without CO2 for a minimum of 12 h. PC3, A2780-CP70, SH-SY5Y, and H9C2 (FIG. S18) cells were cultured in XF24-well cell culture microplates (Seahorse Bioscience) at a density of 2.5×10^4 cells/well (except for H9C2, cell density of this cell line: 5×10^4 cells/well) (0.32 cm2) in 200 μL growth medium and then incubated for 24 h at 37° C. in 5% CO2 atmosphere. […] After 12 h, all but 50 μL of the culture medium was removed from each well and the cells were rinsed two times with 500 μL of XF stress test glycolysis optimization medium pre-warmed to 37° C. and finally 450 μL of glucose depleted optimization medium was added to each well and the plate was placed at 37° C. without CO2 for 1 h prior to assay. Different parameters of respiration were calculated by subtracting the average respiration rates before and after the addition of the electron transport inhibitors oligomycin (1.0 μM), trifluorocarbonylcyanide phenylhydrazone or FCCP (1.0 μM), an ionophore that is a mobile ion carrier, and a mixture of antimycin-A (1.0 μM) which is a complex III inhibitor and rotenone (1.0 μM), a mitochondrial inhibitor that prevents the transfer of electrons from the Fe-S center in Complex I to ubiquinone. The parameters calculated included: basal respiration (baseline respiration minus antimycin-A post injection respiration), ATP turnover (baseline respiration minus oligomycin post injection respiration), maximal respiratory capacity (FCCP stimulated respiration minus antimycin-A post injection respiration) and reserve respiratory capacity (FCCP stimulated respiration minus baseline respiration). Test articles on each well had four replicates (data not shown).

[3] = system: cisplatin resistant A2780/CP70 cells; assay: XF24 MitoStress assay (OCR), A2780/CP70; assay type: cell-based, human; settings: 10 μM with respect to Pt, 12 h; for ATP-linked respiration on addition of oligomycin / basal OCR levels versus control cells / stimulation of mitochondrial respiration with FCCP after oligomycin: A2780/CP70
Text: as §3, §4, §5, §6

nDNA = assay: nDNA-Pt adduct quantification; assay type: cell-based, human; settings: treated PC3 cells, 12 h
Method: (§7) This might be due to the fact that for T-NP system, Platin-M needs to be released from the NPs prior to reduction to cisplatin and subsequent mtDNA interaction and all Platin-M might not have released from the NPs during the course of this experiment, mtDNA isolation was carried out after 12 h which corresponds to only ˜50% of Platin-M will be released from T-NPs (FIG. 4B).
(§8) mtDNA-Pt and nDNA-Pt Adduct Quantification: The mitochondria and nuclei were isolated according to protocol mentioned before. These fractions were further fractionated in order to isolate mitochondrial and genomic DNA, respectively. For mitochondrial DNA (mtDNA), the freshly isolated mitochondria were re-suspended in 35 μL of mitochondrial lysis buffer. To this, 5 μL of the enzyme mix was added. This was incubated at 50° C. in water bath until the solution turned clear (˜1 h). To this, 100 μL of absolute ethanol was added and the resulting solution was incubated for 10 min at −20° C. […] The resulting solution was quantified for the amount and purity of DNA by UV-Vis spectroscopy (260/280 nm) and the amount of Pt by ICP-MS. […] Reprecipitation with 70% ethanol in nanopure H2O was performed until the ratio of the absorbances at 260 and 280 nm was […]. […] The resulting solution was quantified for the amount of DNA by UV-Vis spectroscopy (260/280 nm) and the amount of Pt by ICP-MS.

mtDNA = assay: mtDNA-Pt adduct quantification; assay type: cell-based, human; settings: treated PC3 cells
Method: as §7, §8

[4] = Electrochemistry of Platin-M (redox potential); assay type: physicochemical; settings: 1 mM in 20% DMF-PBS, 0.1 M KCl, 25° C.
Text: We recently developed a cycloaddition approach to introduce numerous functionalities on to Pt(IV) with high efficiency by keeping in mind that copper(I) based click chemistry can also cause reduction of Pt(IV). A TPP moiety was introduced on dibenzocyclooctyne (DBCO) derivative to result DBCO-TPP (FIG. 2, FIGS. S1-S4). A strain-promoted alkyne-azide cycloaddition (SPAAC) reaction between an azide-Pt(IV) precursor Platin-Az (Pathak, R. K., et al. Chem Eur J DOI: 10.1002/chem.201402573) recently developed by us and DBCO-TPP resulted Platin-M with high efficiency (FIG. 2). The prodrug Platin-M was characterized using microanalysis and spectroscopic techniques (FIGS. S5-S10). Feasible cellular reduction of Pt(IV) prodrug is required to release active cisplatin.
Electrochemistry of Platin-M: Electrochemical measurements were made at 25° C. on an analytical system model CHI 920c potentiostat from CH Instruments, Inc. (Austin, Tex.). A conventional three-electrode set-up comprising a glassy carbon working electrode, platinum wire auxiliary electrode, and an Ag/AgCl (3M KCl) reference electrode was used for electrochemical measurements. The electrochemical data were uncorrected for junction potentials. KCl was used as a supporting electrolyte. Platin-M (1 mM) solutions were prepared in 20% DMF-phosphate buffered saline (PBS) of pH 6.0 and 7.4 with 0.1 M KCl and voltammograms were recorded at different scan rates (data not shown).

[5] = Platin-M ability to form micelles (nanoprecipitation, DLS); assay type: physicochemical; settings: DMF solution of Platin-M into water
Text: Morphology of T-Platin-M and NT-Platin-M-NPs was investigated using transmission electron microscopy (TEM) (FIG. 4A). […] Percent loading of Platin-M varied between 6 to 27% based on the percent feed with respect to polymer feed (FIG. 4A, Tables S1 and S2). Given the amphiphilic character of Platin-M with two cationic TPP head groups and lipophilic DBCO moieties, we questioned whether the high loading of Platin-M is due to formation of self-micelles.
Determination of Platin-M Ability to Form Micelles: Platin-M was dissolved in DMF to a final concentration of 1.5 mg/mL. This solution was added drop wise slowly into vigorously stirring nanopure water (10 mL) and stirred at room temperature for 3 h. This solution was then filtered and washed through Amicon filters with a MW cutoff of 100 kDa 3 times in order to ensure the removal of all residual organic solvent. Finally, the NPs were resuspended in nanopure water (1 mL) and filtered through a 0.2 μm filter. The resulting suspension was characterized by DLS.

N.N.[Cl][Pt][Cl] [Cisplatin, Cisdiamminedichloridoplatinum(II), reference compound]
IC50 (PCa PC3 cell line): 13.1 ± 0.1 µM
IC50 [1]: 19 µM
IC50 ([2]; hMSC, MTT, free drugs 72 h, NPs media changed after 12 h plus 60 h): 16.4 ± 0.5 µM
ATP-linked respiration on addition of oligomycin (PC3 cells): attenuated
basal OCR levels versus control cells (PC3 cells): did not show any changes
stimulation of mitochondrial respiration with FCCP after oligomycin (PC3 cells): comparable
ATP-linked respiration on addition of oligomycin [3]: attenuated
basal OCR levels versus control cells [3]: did not show any changes
stimulation of mitochondrial respiration with FCCP after oligomycin [3]: comparable
Pt-nDNA adduct formation (nDNA): much higher than the level of cisplatin adducts in mtDNA

[NH2][Pt]([NH2])([Cl])([Cl])([O]C(=O)CCCCCn1nnc2c1-c1ccccc1CN(C(=O)CCNC(=O)CCCCC[P+](c1ccccc1)(c1ccccc1)c1ccccc1)c1ccccc1-2)[O]C(=O)CCCCC[n+]1n[nH]c2c1-c1ccccc1CN(C(=O)CCNC(=O)CCCCC[P+](c1ccccc1)(c1ccccc1)c1ccccc1)c1ccccc1-2 [Platin-M]
toxicity in hMSCs less than in the resistant cells ([2]; human, 72 h): ~3 times
ATP-linked respiration on addition of oligomycin (PC3 cells): less reduction
basal OCR levels versus control cells (PC3 cells): less than control cells
stimulation of mitochondrial respiration with FCCP after oligomycin (PC3 cells): no enhancement in OCR levels
inhibition of mitochondrial respiration in A2780/CP70 cells compared to PC3 cells [3]: to a greater extent
ATP-linked respiration on addition of oligomycin [3]: less reduction
basal OCR levels versus control cells [3]: less than control cells
stimulation of mitochondrial respiration with FCCP after oligomycin [3]: no enhancement in OCR levels
mtDNA adduct compared to T-Platin-M-NP system (mtDNA; 12 h): marginally higher
Pt-mtDNA adduct formation (mtDNA; mtDNA isolated after 12 h): exhibited binding with mtDNA
Redox potential vs. Ag/AgCl ([4]; pH 6.0): −0.369 V
Redox potential vs. NHE ([4]; pH 6.0): −0.269
Redox potential vs. Ag/AgCl ([4]; pH 7.4): −0.376 V
Redox potential vs. NHE ([4]; pH 7.4): −0.275
PDI of particles from nanoprecipitation without polymer [5]: 0.799
Size of particles from nanoprecipitation without polymer [5]: 941.6±589.5 nm
Zeta Potential of particles from nanoprecipitation without polymer [5]: −5.38±1.66 mV
